Measurements as given in patent publication US6416746B1, “Indanylidene compounds” (Roche Vitamins Inc., priority 1998, dated 2002).

Legend:
[1] = Solubility in cosmetic solvents (CÉTIOL LC, CRODAMOL DA); conditions: for Solubility in CRODAMOL DA: solvent CRODAMOL DA (Diisopropyl adipate); for Solubility in CÉTIOL LC: solvent CÉTIOL LC (Coco-caprylate/caprate); for solubility in cosmetic solvents (in words): cosmetic solvents such as CÉTIOL LC and CRODAMOL DA
[2] = Photostability at high dilution in ethanol solution under Hg lamp with Pyrex filter; type: physicochemical
Experimental: A 25 ml reaction flask equipped with a distillation bridge and connected to vacuum was charged with 2 g (6.3 mmol) of cyano-(2,3-dihydro-5,6-dimethoxy-3,3-dimethyl-1H-inden-1-ylidene) acetic acid ethyl ester (see Example 1), 1.37 g (6.6 mmol) of 3-(1,1,3,3,3-pentamethy-disiloxanyl)-propanol (see above) and 3 mg of tetraisopropyl ortho titanate. The mixture was heated to 115° C. to 120° C. at a vacuum of 360 mbar with stirring for 11 hours.

SMILES | Solubility in CRODAMOL DA [1] | Solubility in CÉTIOL LC [1] [%] | Solubility in CÉTIOL LC ([1]; listed as drawing 30) [%] | photostability [2] | solubility in cosmetic solvents (in words) [1] | Solubility in CÉTIOL LC ([1]; listed as drawing 33) [%]
CCOC(=O)/C(C#N)=C1\CC(C)(C)c2cc(OC)c(OC)cc21 [Example 1, Cyano-(2,3-dihydro-5,6-dimethoxy-3,3-dimethyl-1H-inden-1-ylidene)acetic Acid Ethyl Ester, reference compound] | 1.71% | 0.35 | 0.35 |  |  | 
COc1cc2c(cc1OC)C(C)(C)C/C2=C(/C#N)C(=O)OCCC[Si](C)(C)O[Si](C)(C)C [Example 2, Cyano-(2,3-dihydro-5,6-dimethoxy-3,3-dimethyl-1H-inden-1-ylidene) acetic Acid-3-(1,1,3,3,3-pentamethy-disiloxanyl)-propyl Ester] | miscible |  |  | excellent photostability | excellent solubility | 
COc1cc2c(cc1OC)C(C)(C)C/C2=C(/C#N)C(=O)OCC(C)C[Si](C)(C)O[Si](C)(C)C (centres unmarked) [Example 3, Cyano-(2,3-dihydro-5,6-dimethoxy-3,3-dimethyl-1H-inden-1-ylidene) acetic Acid-3-(1,1,3,3,3-pentamethy-disiloxanyl)-2-methyl-propyl Ester] | miscible |  |  | same solubility and photostability qualities as described in Example 2b | same solubility and photostability qualities as described in Example 2b | 
COc1cc2c(cc1OC)C(C)(C)C/C2=C(/C#N)C(=O)OCCCC[Si](C)(O[Si](C)(C)C)O[Si](C)(C)C [Example 4, Cyano-(2,3-dihydro-5,6-dimethoxy-3,3-dimethyl-1H-inden-1-ylidene) acetic Acid-4-(1,3,3,3-tetramethyl-1-[(trimethylsilyl)-oxy]-disiloxanyl)-butyl Ester] | miscible |  |  | excellent photostability |  | 
CC[Si](CC)(CC)CCOCCCCOC(=O)/C(C#N)=C1\CC(C)(C)c2cc(OC)c(OC)cc21 [Example 5, Cyano-(2,3-dihydro-5,6-dimethoxy-3,3-dimethyl-1H-inden-1-ylidene) acetic Acid-4-(2-triethylsilanyl-ethoxy)-butyl Ester] | miscible |  |  | same solubility and photostability qualities as described in Example 2b | same solubility and photostability qualities as described in Example 2b | 
CC[Si](/C=C/CCOC(=O)/C(C#N)=C1\CC(C)(C)c2cc(OC)c(OC)cc21)(CC)CC [Example 6, Cyano-(2,3-dihydro-5,6-dimethoxy-3,3-dimethyl-1H-inden-1-ylidene) acetic Acid-4-triethylsilanyl-but-3-enyl Ester] | miscible |  |  | same solubility and photostability qualities as described in Example 2b | same solubility and photostability qualities as described in Example 2b | 
COc1ccc2c(c1)CC(C)/C2=C(/C#N)C(=O)OCCCC[Si](C)(C)O[Si](C)(C)C (centres unmarked) [Example 7, Cyano-(2,3-dihydro-5-methoxy-2-methyl-1H-inden-1-ylidene)acetic Acid-4-(1,1,3,3,3-pentamethy-disiloxanyl)-butyl Ester] | miscible |  |  | same solubility and photostability qualities as described in Example 2b | same solubility and photostability qualities as described in Example 2b | 
C=C(CNC(=O)/C(C#N)=C1\CC(C)(C)c2cc(OC)c(OC)cc21)[Si](C)(O[Si](C)(C)C)O[Si](C)(C)C [Example 8, Cyano-(2,3-dihydro-5,6-dimethoxy-3,3-dimethyl-1H-inden-1-ylidene)acetic Acid-2-(1,3,3,3-tetramethyl-1-[(trimethylsilyl)-oxy]-disiloxanyl)-prop-2-enyl Amide] | miscible |  |  | same photostability qualities as described in Example 2b |  | 
C#CCNC(=O)/C(C#N)=C1\CC(C)(C)c2cc(OC)c(OC)cc21 [Example 8b, 2-Cyano-2-(5,6-dimethoxy-3,3-dimethyl-indan-1-ylidene)-N-prop-2-ynyl-acetamide, reference compound] |  | 0.04 |  |  |  | 0.04
C=C(COc1cc2c(cc1OC)/C(=C(\C#N)C(=O)OCC)CC2(C)C)[Si](C)(O[Si](C)(C)C)O[Si](C)(C)C [Example 11] | miscible |  |  | same photostability qualities as described in Example 2b |  | 
CCOC(=O)/C(C#N)=C1\CC(C)(C)c2cc(OC)ccc21 [drawing 31, reference compound] | 0.60% | 0.10 |  |  |  | 
CCOC(=O)/C(C#N)=C1\CC(C)(C)c2cc(OC)ccc21 [drawing 32, reference compound] |  | 0.09 |  |  |  | 
